Legend:
[1] = Determination of the half-life in vivo by imaging healthy mice with 68Ga-TEFAPI-06; settings: PET imaging, SUV at the heart, 68Ga label, tail vein injection; for half-life: mouse, blood, intravenous, 37 MBq
Description: A germanium-gallium generator was eluted with 5 mL of 0.6 M high-purity hydrochloric acid to obtain Ga-68 hydrochloric acid solution. 1 mL of the eluted Ga-68 solution was taken, 100 μL of 3M sodium hydroxide and 130 μL of 3M sodium acetate were added to adjust the acidity, the final pH was 4.0, 50 μg of TEFAPI-06 precursor was added, and the reaction mixture was heated to 90° C., and maintained at the temperature for 10 minutes. The reaction solution was passed through a C18 column to remove free ions, and then the C18 column was eluted with ethanol solution. Labeled ^68Ga-TEFAPI-06 was obtained.
37 MBq labeled product was taken, 200 μL of normal saline was added for dilution, the drug was drawn with an insulin syringe for later use, and ethanol content in the drug was not higher than 5%. Healthy mice were anesthetized in advance and then placed on a PET/CT collection bed and an indwelling needle was placed at the tail vein. The syringe was attached to the indwelling needle, and collection of PET data was started at the zero moment of needle pushing. Collection time points were 0-60 min, 2 h, 3 h, 4 h, and 5 h respectively. After the collection, the data was reconstructed with professional software, and reconstruction conditions were to reconstruct the data at intervals of every minute for the first 5 minutes, reconstruct the data every 5 minutes in 5-60 minutes, and reconstruct the data at each of the other time points. The collected data was processed by PET reconstruction software to obtain continuous image. In PET processing software, a fixed region was depicted at the heart of the mouse, and SUV-Mean and SUV-Max values at the heart were obtained. The obtained SUV was simulated via data processing software.

FAP = assay: Competitive inhibition experiment of TEFAPI-06 in mice with PDX pancreatic cancer (68Ga-FAPI-04 PET); type: in vivo
Description: In order to verify the specificity of TEFAPI-06 against a FAP target, the inventors performed PET imaging on the same batch of mice before and after inhibition in the competitive inhibition experiment. According to the Y-86 long-duration PET imaging, the uptake of the tumor reached a peak between 18 hours and 24 hours after drug injection. Therefore, ^68Ga-FAPI-04 imaging was first performed on tumor-bearing mice to determine that the mice had tumor uptake. After 48 hours of standing to ensure metabolism of ^68Ga-FAPI-04, two mice were injected with 300 μg of TEFAPI-06 molecules, and 18 hours after injection, PET molecular imaging of ^68Ga-FAPI-04 was performed on the mice injected with TEFAPI-06 molecules.

[2] = test system: PDX mouse model of pancreatic cancer; assay: Long-duration PET imaging with 86Y-TEFAPI-06 in a PDX mouse model of pancreatic cancer; type: in vivo; settings: after 18 hours
Description: Y-86 is a positron nuclide with half-life of 14.6 hours and can be radiolabeled with DOTA, and therefore, is very suitable for long-duration detection of the distribution of TEFAPI molecule in vivo. 1 mL of Y-86 hydrochloric acid was taken, 100 μL of 3M sodium hydroxide and 130 μL of 3M sodium acetate were added to adjust acidity, the final pH was 4.0, 50 μg of TEFAPI-06 precursor was added, and the reaction mixture was heated to 90° C., and maintained at the temperature for 10 minutes. The reaction solution was passed through a C18 column to remove free ions, and then the C18 column was eluted with ethanol solution. Labeled ^86Y-TEFAPI-06 was obtained. The labeled ^86Y-TEFAPI-06 was diluted with normal saline, and 7.4 Mbq of the resulting solution was injected to each mouse. PET scanning imaging was performed at 0.5, 2, 6, 12, 18, 24 and 36 h after injection, and PET image processing software was used for reconstruction. The obtained PET image is shown in FIG. 3, SUV values were marked at the tumor and heart of the mouse, and a curve was obtained based on the change of the SUV value with time.

PDX pancreatic cancer = assay: Treatment of PDX pancreatic cancer in mice with 177Lu-TEFAPI-06; type: in vivo; settings: Lu-177 label, treatment dose 3.7 MBq
Description: There were 5 mice in each group. The treatment dose was 3.7 MBq. […] In order to evaluate the therapeutic effect, the inventors performed physical examination via FAPI-04 imaging on mice before and after the treatment, and the results are shown in FIG. 5.

Structure (SMILES) | blood half-life [1] | half-life [1] | tumor uptake of 68Ga-FAPI-04 after injection of TEFAPI-06 (inhibition) (FAP; 300 μg TEFAPI-06, 18 hours before 68Ga-FAPI-04 PET, read 30 minutes after injection) | target site (specificity) (FAP; conclusion of competitive inhibition experiment) | kidney metabolism [2] | tumor/normal tissue uptake ratio [2] | tumor growth (tumor growth curve) (PDX pancreatic cancer)
N#C[C@@H]1CC(F)(F)CN1C(=O)CNC(=O)c1ccnc2ccc(OCCCN3CCN(C(=O)[C@H](CCCCNC(=O)CN4CCN(CC(=O)O)CCN(CC(=O)O)CCN(CC(=O)O)CC4)NC(=O)CCCC(=O)NC(CCCCNC(=O)CCCc4ccc(I)cc4)C(=O)O)CC3)cc12 (some centres unmarked) [TEFAPI-06] | 398 min | 400 min | basically no additional uptake at the tumor | FAP | basically cleared | greater than 10 | significantly inhibited
N#C[C@@H]1CC(F)(F)CN1C(=O)CNC(=O)c1ccnc2ccc(OCCCN3CCN(C(=O)CN4CCN(CC(=O)O)CCN(CC(=O)O)CCN(CC(=O)O)CC4)CC3)cc12 [FAPI-04, reference compound] |  | 26 min |  |  |  |  | 
